The structures appear in SMILES notation. Values after ≈ are worked out from the molar mass of the structure shown. Like-named read-outs stand apart in the source and are kept apart here.

Series [1] can be described thus: Water solubility of test solutions. The series is classed as physicochemical. To be noted: solutions diluted in water, 2.5% m ethanol; precipitates formed. The procedure:
Tests have been conducted on Gram-positive bacteria with methyl glucopyranoside derivatives. […] After sterilization the solutions are diluted in water. […] Because precipitates formed in the solutions, the effect of these methyl glucopyranoside C10 and C12 acetals was not able to be evaluated. The results obtained for antimicrobial tests on the 3 bacterial strains L. monocytogenes (CIP 103575), E. faecalis (ATCC® 29212) and S. aureus (ATCC® […]) are summarized in Table 1.

Series [2] concerns Staphylococcus S. aureus strains (ATCC, methicillin-resistant, daptomycin-resistant). Nature of the series: MIC on a wider panel of strains (Example 10), microdilution. The format is cell-based. The procedure:
The cultures studied, freshly isolated (after incubation on a blood agar at 37° C. for 18 h), are taken up in sterile water (10 mL) until obtaining a 0.5 McFarland (Mc) suspension i.e. 1 to 1 to 2×10^8 CFU (bacteria)/cm^3. The bacterial suspension was then diluted to obtain a final concentration of 1×10^6 CFU/cm^3.
Each well contains an identical quantity of Mueller-Hinton medium (a rich medium for bacterial culture) and bacteria with final [concentration of] 0.5×10^6 CFU/cm^3.
The test compounds of interest are solubilized in ethanol or DMSO at 25 mg/mL before being diluted to different concentrations two by two. On the multiwell plate, a first series has been planned comprising the culture medium without the test compound of interest. It corresponds to the growth control (control well). These controls serve as reference for comparing bacterial growth with that of the subsequent wells comprising different concentrations of the test compound of interest. The second series of wells comprises the mother solution for the test compound of interest for a concentration in the wells of 256 mg/L (7 mM). Each series of wells was diluted two by two until the last series for a final concentration of 0.25 mg/L (0.0007 mM). Each concentration is duplicated in the same plate. The plate is incubated for 18 h at 37° C. […] If there is antibacterial activity, the bacterial growth is inhibited, which means that no turbidity or bacterial residue is present.
The minimum inhibitory concentrations (MIC) are tested on Gram-positive bacterial strains according to the recommendations of the “Clinical Laboratory Standards Institute” (Clinical-Laboratory-Standards-Institute, 6th ed. Approved standard M100-S17. CLSI, Wayne, Pa., 2007). The clinical strains have been isolated in the Hospice de Lyon.
Staphylococci S. aureus: ATCC® 29213™, ATCC 25923,
The cultures studied, freshly isolated (after incubation on a blood agar at 37° C. for 18 h), are taken up in sterile water (10 mL) until obtaining a 0.5 McFarland (Mc) suspension i.e. At 10^8 CFU (bacteria)/cm^3. The bacterial suspension was then diluted to obtain a final concentration of 10^6 CFU/cm^3.
For orientation: Broth dilution looks for growth in wells or tubes with falling amounts of substance.

In series [3] the test system is E. faecalis strains (ATCC 29212, 9901, 1801). Described as above. To be noted: Enterococcus faecalis, ATCC29212. The series is classed as cell-based. On the procedure:
The cultures studied, freshly isolated (after incubation on a blood agar at 37° C. for 18 h), are taken up in sterile water (10 mL) until obtaining a 0.5 McFarland (Mc) suspension i.e. 1 to 1 to 2×10^8 CFU (bacteria)/cm^3. The bacterial suspension was then diluted to obtain a final concentration of 1×10^6 CFU/cm^3. Each well contains an identical quantity of Mueller-Hinton medium (a rich medium for bacterial culture) and bacteria with final [concentration of] 0.5×10^6 CFU/cm^3. The test compounds of interest are solubilized in ethanol or DMSO at 25 mg/mL before being diluted to different concentrations two by two. On the multiwell plate, a first series has been planned comprising the culture medium without the test compound of interest. It corresponds to the growth control (control well). These controls serve as reference for comparing bacterial growth with that of the subsequent wells comprising different concentrations of the test compound of interest. The second series of wells comprises the mother solution for the test compound of interest for a concentration in the wells of 256 mg/L (7 mM). Each series of wells was diluted two by two until the last series for a final concentration of 0.25 mg/L (0.0007 mM). Each concentration is duplicated in the same plate. The plate is incubated for 18 h at 37° C. […] If there is antibacterial activity, the bacterial growth is inhibited, which means that no turbidity or bacterial residue is present. The minimum inhibitory concentrations (MIC) are tested on Gram-positive bacterial strains according to the recommendations of the “Clinical Laboratory Standards Institute” (Clinical-Laboratory-Standards-Institute, 6th ed. Approved standard M100-S17. CLSI, Wayne, Pa., 2007). The clinical strains have been isolated in the Hospice de Lyon. Enterococci: E. faecalis (ATCC® 29212™), clinical enterococci strains E. faecalis isolated from urines: strain 015206179901 (hereinafter 9901), strain 015205261801 (hereinafter 1801) The cultures studied, freshly isolated (after incubation on a blood agar at 37° C. for 18 h), are taken up in sterile water (10 mL) until obtaining a 0.5 McFarland (Mc) suspension i.e. At 10^8 CFU (bacteria)/cm^3. The bacterial suspension was then diluted to obtain a final concentration of 10^6 CFU/cm^3.

[4] abbreviates: methicillin-resistant, HT 2002-0417, read-out: MIC S. aureus HT 2002-0417.
[5] abbreviates: methicillin-resistant, HT 2006-1004, read-out: MIC S. aureus HT 2006-1004.
Where [6] appears, read: methicillin-resistant, LY 199-0053, read-out: MIC S. aureus LY 199-0053.
Setting [7] is: methicillin-resistant, Lac-Deleo USA 300, read-out: MIC S. aureus USA 300.
[8] abbreviates: methicillin-resistant, MU 3, read-out: MIC S. aureus MU 3.
Setting [9] is: strain ATCC 25923, read-out: MIC S. aureus ATCC 25923.
The mark [10] stands for this setting: strain ATCC 29213, read-out: MIC S. aureus ATCC 29213.
The mark [11] stands for this setting: E. faecalis ATCC 29212, read-out: MIC Enterococcus ATCC 29212.

As a reminder, the MIC is the lowest concentration that inhibits growth of the organism. In the case of `CCCCCCCCCCCC1OCC2O[C@H](OC)C(O)C(O)[C@@H]2O1` (stereo partly drawn) [Compound 1e, Methyl 4,6-O-Dodecylidene α-D-glucopyranoside], the water solubility result in series [1] was “low water solubility”. Besides, the MIC was over 256 µg/mL in series [2] (Staphylococcus, all strains of Table 6, read-out: MIC, staphylococcus strains tested); 256 µg/mL (≈ 710 µM) in series [2] (setting [4]); 256 µg/mL (≈ 710 µM) in series [2] (methicillin-resistant, HT 2004-0012, read-out: MIC S. aureus HT 2004-0012); 256 µg/mL (≈ 710 µM) in series [2] (setting [5]); 256 µg/mL (≈ 710 µM) in series [2] (setting [6]); 256 µg/mL (≈ 710 µM) in series [2] (setting [7]). Further, the MIC in series [2] (setting [8]), in series [2] (setting [9]), in series [2] (setting [10]) and in series [3] (setting [11]) was 256 µg/mL (≈ 710 µM) in each case.

As to `CCCCCCCCCCCC1OCC2O[C@@H](OC)C(O)C(O)[C@@H]2O1` (stereo partly drawn) [Compound 1f, Methyl 4,6-O-Dodecylidene β-D-glucopyranoside], the MIC in series [2] (daptomycin-resistant, ST 2014 1288, read-out: MIC S. aureus ST 2014 1288) was 64 µg/mL (≈ 178 µM); in series [2] (daptomycin-resistant, ST 2015-0188, read-out: MIC S. aureus ST 2015 0188) it was 64 µg/mL (≈ 178 µM); in series [2] (daptomycin-resistant, ST 2015-0989, read-out: MIC S. aureus ST 2015 0989), 64 µg/mL (≈ 178 µM); in series [2] (setting [4]) it was 128 µg/mL (≈ 355 µM); in series [2] (setting [5]) it was 64 µg/mL (≈ 178 µM); in series [2] (setting [6]), 64 µg/mL (≈ 178 µM). The MIC in series [2] (setting [7]) was determined as 64 µg/mL (≈ 178 µM); in series [2] (setting [8]), 64 µg/mL (≈ 178 µM); in series [2] (setting [9]) it was 64 µg/mL (≈ 178 µM); in series [2] (setting [10]) it was 64 µg/mL (≈ 178 µM); in series [3] (setting [11]), 64 µg/mL (≈ 178 µM); in series [3] (E. faecalis clinical strain 015205261801, from urines, read-out: MIC Enterococcus 1801), 8 µg/mL (≈ 22.2 µM). The MIC in series [3] (E. faecalis clinical strain 015206179901, from urines, read-out: MIC Enterococcus 9901) was determined as 32 µg/mL (≈ 88.8 µM).

These data come from patent publication US10537103B2, “Antibacterial composition containing an isomer mixture of monosaccharide alkyl monoacetals or monoethers” (TEREOS STARCH & SWEETENERS BELGIUM, priority 2014, dated 2020).
